Reference: patent US10544075B2 (OREGON HEALTH & SCIENCE UNIVERSITY, priority 2016, dated 2020)

Experiments:
[1] = Single time-point drug distribution of parent drugs from amides in brain and serum; format: in vivo, C57Bl/6 mice; conditions: equimolar systemic dose of 3.05 μmol/kg, 1 hour, brain
Method: Wild type male C57Bl/6 mice, aged 8-10 weeks, were housed in a climate-controlled room with a 12 hour light-dark cycle with ad libitum access to food and water. To compare the single time-point drug distribution of JD-20 with JD-20 generated from the amide MA-JD20, and JD-21 with JD-21 generated from the amide MA-JD-21, the concentrations of the parent drugs were analyzed in brain and serum of mice by administering a dose of 3.05 μmol/kg (three mice per dose) with JD-20, JD-21, MA-JD20 and MA-JD21 both intraperitoneally and orally. The compounds were dissolved in a mixture of 50:50 DMSO and 0.9% sodium chloride bacteriostatic solution. Oral gavage was performed with the use of plastic feeding tubes (20 ga×38 mm, Instech Laboratories Inc., PA, USA) connected to […] insulin syringes (Covidien LLC MA, USA). In both experiments, the mice were euthanized after 1 hour following drug administration.
The tissues were processed as follows: The brains were collected in previously weighed homogenizer tubes with 3 Gold Spec ⅛ chrome steel balls (Applied Industrial Technologies) and immediately frozen at −80° C. The blood samples were kept on ice for 30 mins and then spun down at 5400×G at 4° C. for 15 min. […]
The serum samples were warmed to room temperature. […] The serum samples thus prepared were submitted for LC-MS/MS analysis to quantify the amount of free JD-20 or JD-21. […]

[2] = target: Human FAAH (Homo sapiens (Human), UniProt O00519); experiment: FAAH activity in cell homogenate; format: biochemical
Chain of Human FAAH (O00519 whole entry): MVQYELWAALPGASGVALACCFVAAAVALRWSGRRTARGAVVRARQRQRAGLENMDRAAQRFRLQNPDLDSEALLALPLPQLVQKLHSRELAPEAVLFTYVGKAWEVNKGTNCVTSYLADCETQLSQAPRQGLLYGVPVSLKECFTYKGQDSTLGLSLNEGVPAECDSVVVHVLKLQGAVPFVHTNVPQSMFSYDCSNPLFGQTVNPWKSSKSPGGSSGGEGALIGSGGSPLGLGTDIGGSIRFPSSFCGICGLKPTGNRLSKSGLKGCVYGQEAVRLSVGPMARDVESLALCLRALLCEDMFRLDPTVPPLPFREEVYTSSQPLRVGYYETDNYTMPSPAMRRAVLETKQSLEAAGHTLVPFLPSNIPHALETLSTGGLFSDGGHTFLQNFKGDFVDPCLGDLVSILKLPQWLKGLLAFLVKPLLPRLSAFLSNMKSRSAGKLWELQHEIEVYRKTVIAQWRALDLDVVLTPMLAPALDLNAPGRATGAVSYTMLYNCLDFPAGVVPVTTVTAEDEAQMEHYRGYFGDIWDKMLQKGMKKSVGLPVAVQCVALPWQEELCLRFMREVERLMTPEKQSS
Method: COS-7 cells (ATCC CRL-1651) were cultured in Dulbecco's Modified Eagle's Medium supplemented with 10% FBS, penicillin ([…]), and streptomycin ([…]). Cells (800,000/well) were seeded into 6-well plates (Falcon 353046) and left to adhere overnight. Cells were transfected with pcDNA4-FAAH-FLAG with Lipofectamine 2000 (Invitrogen) according to the manufacturer's protocol. Mock transfection controls were done with transfection reagent and no DNA. Cells were washed 4-days post transfection with cold PBS and scraped into TE buffer (125 mM Tris, 1 mM EDTA, pH 9) and sonicated (10 sec, 60 Sonic Dismembrator, Fisher). Cell homogenates were stored at −80° C. and protein concentrations were determined by BCA (Pierce). Cell homogenates were diluted into TE buffer containing 0.1% fatty-acid free BSA (Alfa Aesar). Substrates were added as 50× stocks in DMSO into 50 μL aliquots of homogenate to a final concentration of 100 μM. Reactions were performed with homogenate protein at 31.25 μg/mL for 15 min at 37° C. Reactions were quenched with 100 μL acetonitrile and vortexed for 20 s. Samples were clarified by centrifuge (10,000 rpm, 15 min, 4° C.). The supernatant is diluted 50-fold into 2:1 MeCN:H2O containing 300 nM d11-arachindonic acid and 30 nM d6-sobetirome. Samples were centrifuged again (13,200 rpm, 15 min, 4° C.). Products were quantified by LC/MS-MS with standard curves generated from mock samples. Observed rates are expressed as nmol product per mg protein homogenate per min.
FAAH was overexpressed in COS-7 cells as described above and cell homogenate was used to measure observed rates of substrate cleavage compared with the classic endogenous FAAH substrate anandamide (AEA). Substrate were all tested at 100 μM. Compared to AEA, the thyromimetic amides MA-GC 1 (9-fold), MA-JD20 (31-fold), and MA-JD21 (20-fold) show decreased rates. […] Observed rates are expressed as nmol product per mg homogenate protein per min.

[3] = system: Hairless (Hr) mRNA; experiment: Induction of Hairless (Hr) mRNA expression in the brain by qPCR after ip administration; format: in vivo, C57BL/6J mice; conditions: for induction of Hr expression: 9.14 μmol/kg ip; for induction of Hr expression / EC50 of Hr mRNA induction in the brain / Hr induction compared to GC-1: 2 hr; for induction of Hr expression / Hr induction compared to GC-1 / potency greater than GC-1 (Hr induction, single dose): brain; for induction of Hr expression / EC50 of Hr mRNA induction in the brain: normalized to GAPDH mRNA; for EC50 of Hr mRNA induction in the brain: ip, ±SEM; for Hr induction compared to GC-1: analogs at 0.914 μmol/kg ip; for potency greater than GC-1 (Hr induction, single dose): from single dose comparison
Method: Euthanasia was performed on three mice per dose at 2 hr and the tissues were harvested. The brain tissues collected for qPCR analysis were processed according to a protocol for RNA extraction using Trizol reagent and the PureLink RNA mini kit, using Qiagen RNase-free DNase kit during the optional DNase treatment step. 1 μg of extracted RNA was used to synthesize cDNA via a reverse transcription (RT) reaction using the Qiagen QuantiTect Reverse Transcription kit. DNA contamination was controlled for by duplicating one sample without the addition of RT enzyme. Expression of the Hairless (Hr) gene was measured by QPCR using the QuantiTect SYBR green PCR kit from Qiagen. The primer sequences for hairless ([…]; Rev: [NT] were previously described by Barca-Mayo19. The template cDNA was diluted 2-fold to minimize the interference of RT reagents in the qPCR reaction. Glyceraldehyde-3-Phosphate Dehydrogenase (GAPDH) was the housekeeping gene used for normalizing between samples. Data analysis for single dose experiment was done using the comparative CT method to look at the relative differences in Hr gene expression.

[4] = target: hTRα1 (Homo sapiens (Human), UniProt P10827); experiment: TRE-driven dual luciferase transactivation assay, TRα; format: cell-based; conditions: transiently transfected HEK293 cells; ±SEM
Chain of hTRα1 (P10827 other isoform, or with tags, fused parts or gaps): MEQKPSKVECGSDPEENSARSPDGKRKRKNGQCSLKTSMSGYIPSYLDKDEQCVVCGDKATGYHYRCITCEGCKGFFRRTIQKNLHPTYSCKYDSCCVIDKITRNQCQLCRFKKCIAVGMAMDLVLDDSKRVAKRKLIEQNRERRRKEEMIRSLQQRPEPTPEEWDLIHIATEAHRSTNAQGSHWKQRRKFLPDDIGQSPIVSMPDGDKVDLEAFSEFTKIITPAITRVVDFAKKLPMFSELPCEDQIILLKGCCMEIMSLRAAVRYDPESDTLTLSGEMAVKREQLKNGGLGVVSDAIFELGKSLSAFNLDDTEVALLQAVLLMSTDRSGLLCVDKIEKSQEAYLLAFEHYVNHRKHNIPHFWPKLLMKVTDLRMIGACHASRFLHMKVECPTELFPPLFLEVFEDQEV
Method: The cells were trypsinized with 0.25% trypsin, then diluted to 5×10^5 cells/mL with high glucose DMEM. […] 1.5 μg of TR expression vector (full length TRα-CMV or TRβ-CMV), 1.5 μg of a reporter plasmid containing a DR4 thyroid hormone response element (TRE) direct repeat spaced by four nucleotides (AGGTCAcaggAGGTCA) cloned upstream of a minimal thymidine kinase promoter linked to a firefly luciferase coding sequence, and 0.75 μg of a pRL-SV40 constitutive Renilla luciferase reporter plasmid were diluted into 540 μl of OptiMEM. 27 μL of lipofectamine reagent was diluted into 540 μL of OptiMEM. The plasmid and lipofectamine dilutions were combined then incubated at RT for 10 min. The mixture was then diluted into 4.29 mL of OptiMEM. Plates were washed with 100 μL of phosphate buffered saline (PBS) at pH 7.2 without magnesium or calcium chloride per well. Transfection mixtures were added at 50 μL per well, then incubated at 37° C. for 4 hours. […]
(§1) Cells were assayed for luciferase activity using the Promega DualGlo kit. […] A 50 μl volume of Stop & Glo Reagent was added per well, then the plate was read for Renilla luciferase activity. Data normalized to Renilla internal control were analyzed with GraphPad Prism v.4a using the sigmoid dose response model to generate EC50 values±SEM.

[5] = target: hTRβ1 (Homo sapiens (Human), UniProt P10828); experiment: TRE-driven dual luciferase transactivation assay, TRβ; format: cell-based; conditions: transiently transfected HEK293 cells; ±SEM
Chain of hTRβ1 (Homo sapiens (Human), UniProt P10828) (P10828 whole entry, looked up): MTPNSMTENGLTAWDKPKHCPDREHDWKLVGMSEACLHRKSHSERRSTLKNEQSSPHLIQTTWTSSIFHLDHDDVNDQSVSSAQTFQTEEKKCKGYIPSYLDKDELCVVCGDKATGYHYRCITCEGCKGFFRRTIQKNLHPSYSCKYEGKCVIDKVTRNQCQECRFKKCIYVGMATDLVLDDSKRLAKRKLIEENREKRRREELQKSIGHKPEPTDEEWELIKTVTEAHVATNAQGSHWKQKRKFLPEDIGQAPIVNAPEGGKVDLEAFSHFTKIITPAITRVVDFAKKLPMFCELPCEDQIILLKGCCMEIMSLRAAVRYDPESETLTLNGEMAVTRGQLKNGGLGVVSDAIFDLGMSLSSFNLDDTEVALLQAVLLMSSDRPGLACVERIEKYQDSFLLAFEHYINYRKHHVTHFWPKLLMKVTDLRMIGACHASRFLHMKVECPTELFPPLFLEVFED
Method: (§2) The cells were trypsinized with 0.25% trypsin, then diluted to 5×10^5 cells/mL with high glucose DMEM. […] 1.5 μg of TR expression vector (full length TRα-CMV or TRβ-CMV), 1.5 μg of a reporter plasmid containing a DR4 thyroid hormone response element (TRE) direct repeat spaced by four nucleotides (AGGTCAcaggAGGTCA) cloned upstream of a minimal thymidine kinase promoter linked to a firefly luciferase coding sequence, and 0.75 μg of a pRL-SV40 constitutive Renilla luciferase reporter plasmid were diluted into 540 μl of OptiMEM. 27 μL of lipofectamine reagent was diluted into 540 μL of OptiMEM. The plasmid and lipofectamine dilutions were combined then incubated at RT for 10 min. The mixture was then diluted into 4.29 mL of OptiMEM. Plates were washed with 100 μL of phosphate buffered saline (PBS) at pH 7.2 without magnesium or calcium chloride per well. Transfection mixtures were added at 50 μL per well, then incubated at 37° C. for 4 hours. Modified DME/F-12 Ham's medium without phenol red containing 15 mM HEPES and bicarbonate, 5 mM L-glutamine, charcoal-stripped FBS, 50 units/mL penicillin and 50 μg/mL streptomycin was added at 50 μL per well, then the plates were incubated at 37° C. for 20 hours. Drug stocks were made at 10 mM in DMSO, then serially diluted to 1× concentrations in DME/F-12 Ham's. Plates were washed with 100 μL of PBS (pH 7.2) per well. 100 μL of each drug stock was added to the wells in triplicate, and then the plates were incubated at 37° C. for 24 hours.
as §1

[6] = system: hTRβ1; experiment: as above; format: cell-based, human; conditions: transactivation assays in HEK293 cells
Method: as §2, §1

[7] = Distribution study in brain and serum after systemic (ip) administration, LC-MS/MS; format: in vivo, C57BL/6J mice; conditions: 9.14 μmol/kg ip, 1 hr post-injection
Method: Euthanasia was performed on three mice per dose at 1 hr and the tissues and blood were harvested. Tissues were immediately frozen and blood was kept on ice for a minimum of 30 minutes and then spun down at 7,500×G for 15 minutes. Serum (100 uL) was collected and was stored with tissues at −80° C. until samples were processed.
The serum samples were warmed to RT and 10 uL of 2.99 μM internal standard (D6-GC-1) was added to them. Acetonitrile (500 uL) was added and the sample was vortexed for 20 seconds. The sample was then centrifuged at 10,000×G for 15 minutes at 4° C. Next, 90% of the upper supernatant was transferred to a glass test tube and concentrated using a speedvac for 1.5 hr at 45° C. The dried sample was then dissolved in 400 μL of 50:50 ACN:H2O and vortexed for 20 seconds. The resulting mixture was transferred to an Eppendorf tube and centrifuged at 10,000×G for 15 minutes. The supernatant was filtered with […] centrifugal filters and submitted for LCMS/MS analysis. […] The processing was performed exactly the same except after filtering the sample was split among 6 vials.
The brain samples were warmed to RT and transferred to a homogenizer tube with 5 GoldSpec ⅛ chrome steel balls (Applied Industrial Technologies). The resulting tube was weighed and then 1 mL of H2O was added, followed by 10 μL of 2.99 μM internal standard (D6-Sobetirome). The tube was homogenized with a Bead Bug for 30 seconds and then transferred to a Falcon® tube containing 3 mL of ACN. A 1 ml volume of ACN was used to wash the homogenizer tube. Then the solution was transferred back to the Falcon® tube. The sample was then processed using the same method for the serum processing described above except the sample was concentrated in a glass tube using a speed vac for 4 hr at 45° C.
A distribution study was carried out in C57BL/6J mice to determine the concentrations in brain and serum after systemic (ip) administration. […] Tissue and blood were collected 1 hr post-injection and the concentration of the drugs was determined by LC-MS/MS analysis (FIG. 2).

[8] = rat heart rate elevation and anti-goiter assays; cited from earlier work

Row | SMILES | induction of Hr expression [3] [fold] | EC50 of Hr mRNA induction in the brain [3] [µmol/kg] | EC50 [4] [nM] | EC50 [5] [nM] | TRβ/TRα subtype selectivity from EC50 values [6] | brain:serum ratio compared to GC-1 [7] | brain uptake compared to GC-1 [7] | serum levels compared to GC-1 [7] | Hr induction compared to GC-1 [3] | potency greater than GC-1 (Hr induction, single dose) [3] | further results
1 | CNC(=O)COc1cc(Cl)c(Cc2ccc(O)c(C(C)C)c2)c(Cl)c1 [MA-JD21, 2-(3,5-dichloro-4-(4-hydroxy-3-isopropylbenzl)phenoxy)-N-methylacetamide] | – | – | – | – | – | – | – | – | – | – | parent drug delivered to the CNS compared to unmodified JD-20 or JD-21 [1]: delivers more of the parent drugs to the CNS; FAAH substrate ([2]; 100 μM, COS-7 cell homogenate): substrates for fatty-acid amide hydrolase (FAAH); decreased observed rate of substrate cleavage compared to AEA ([2]; substrate 100 μM, FAAH overexpressed in COS-7 cell homogenate): 20 fold
2 | Cc1cc(OCC(=O)O)cc(C)c1Cc1ccc(O)c(C(C)C)c1 [GC-1, sobetirome, reference compound] | 1.6 | 8.20 ± 12.65 | – | – | – | – | – | – | – | – | –
3 | CC(C)c1cc(Cc2c(Cl)cc(OCC(=O)O)cc2Cl)ccc1O [JD-21, 2-(3,5-dichloro-4-((3-isopropyl-4-hydroxyphenyl)methyl)-phenoxy)acetic acid] | 2.4 | 1.21 ± 1.75 | 7.82 ± 3.61 | 1.24 ± 1.3 | 6.31 | higher brain:serum ratio than GC-1 | roughly comparable brain uptake compared to GC-1 | significantly lower than GC-1 | comparable Hr induction to GC-1 | roughly 10 fold | –
4 | Cc1cc(CC(N)C(=O)O)cc(C)c1Oc1ccc(O)c(C(C)C)c1 (racemic) [DIMIT, 3′-isopropyl-3,5-dimethyl-DL-thyronine] | – | – | – | – | – | – | – | – | – | – | activity [8]: little measurable activity
5 | CC(C)c1cc(Cc2c(Br)cc(OCC(=O)O)cc2Br)ccc1O [JD-20, 2-(3,5-dibromo-4-((3-isopropyl-4-hydroxyphenyl)methyl)-phenoxy)acetic acid] | – | 1.49 ± 1.08 | 7.96 ± 6.95 | 0.88 ± 1.12 | 9.04 | comparable to GC-1 | somewhat lower | significantly lower than GC-1 | comparable Hr induction to GC-1 | roughly 10 fold | –
6 | CC(C)c1cc(Oc2c(Br)cc(C[C@H](N)C(=O)O)cc2Br)ccc1O [DIBIT, 3′-isopropyl-3,5-dibromo-L-thyronine] | – | – | – | – | – | – | – | – | – | – | potency relative to L-T4 [8]: 2-7 fold
